According to patent US6015790A, “Methods and compositions for treating rheumatoid arthritis” (BASF Aktiengesellschaft, priority 1997, dated 2000):

Assays:
[1] = test system: collagen induced arthritis in DBA-1 mice; assay: Collagen induced arthritis, prophylactic model (mean arthritic score); format: in vivo; conditions: 5 mg/kg/day intraperitoneally, day 26 to day 35 post immunization
[2] = test system: collagen induced arthritis in DBA-1 mice; assay: Collagen induced arthritis, therapeutic model (mean arthritic score, histopathology); format: in vivo; conditions: 5 mg/kg/day intraperitoneally, 21 days from day 48, necropsy day 71, vs vehicle
[3] = test system: National Cancer Institute's P388 lymphocytic leukemia cell line; conditions: cited from earlier work

Row | Molecule | signs of rheumatoid arthritis after end of treatment (mean arthritic score) [1] | cartilage involvement (cartilage damage, histopathology, scale 0-3) [2] | synovitis (synovial inflammation, histopathology, scale 0-3) [2] | inhibition of cell growth [3]
1 | C[C@@H]1C[C@H]2[C@@H]3CCC4=CC(=O)C=C[C@]4(C)[C@@]3(F)[C@@H](O)C[C@]2(C)[C@@]1(O)C(=O)CO [dexamethasone] | exhibited signs of rheumatoid arthritis immediately following the end of treatment | significantly suppressed | significantly suppressed | –
2 | Dolastatin-15 | – | – | – | markedly inhibits the growth
